Laboratory results reported in article PMC8156151 (The European Respiratory Journal, 2021).

Columns and labels:
Format in all cases: in vivo, human
MIF = assay: Plasma biomarker MIF; conditions: IPF patients
Method: (§1) All patients, investigators, sites and study sponsor personnel were blinded to the study group assignments throughout the study. Patients underwent study-specific assessments on days 2, 3, 7, 14 and 15, and a post-study assessment was carried out 26–30 days after the last day of the study period. Assessments included vital signs (supine blood pressure, pulse, oxygen saturation, oral temperature and respiratory rate), spirometry, 12-lead ECG, physical examination, laboratory safety screen (haematology, biochemistry, urinalysis and urinary drugs of abuse screen) and blood sampling for PK measurements. All adverse events and concomitant medications were recorded from the time of the screening visit until the post-study follow-up visit. BAL was performed at day −1 (24 h before the first dose) and at day 14 (2 h after the last dose). The BAL procedure was performed as per international guidelines. Briefly, 240 mL of 0.9% saline at room temperature was instilled in 40 mL aliquots into the right middle lobe and aspirated by suction after each aliquot.
(§2) BAL cells were separated from fluid by centrifugation, and cells were collected, stained with antibodies (supplementary material) and then fixed before analysis using a LSR Fortessa flow cytometer (Becton Dickinson, Franklin Lakes, NJ, USA). Data were analysed using FlowJo software (Tree Star, Ashland, OR, USA). Macrophages were identified as having high side scatter properties and human leukocyte antigen-DR positivity. Gal-3 expression (mean fluorescence intensity) was determined from the macrophage gate (supplementary figures S1 and S2). […] Samples were analysed by magnetic Luminex assay (R&D Systems, Minneapolis, MN, USA) or ELISA.
(§3) For part 2 of the study, placebos were combined from the three dose-specific cohorts into a pooled control group (n=9). For alveolar macrophage Gal-3 expression and the plasma biomarkers, ANCOVA was performed for percentage of baseline ((day 14/day 1)×100). The ANCOVA model included effects for treatment group and baseline (day 1) value. […] An additional analysis including dose as a continuous covariate was also performed. The Pearson correlation coefficient (r) and associated p-value were calculated for percentage of baseline and day 14 values between plasma biomarkers and alveolar macrophage Gal-3 expression. […] The analysis is exploratory and there was no pre-planned adjustment for multiple testing; the study was not powered for this. Alveolar macrophage Gal-3 expression was considered the primary exploratory analysis with the pre-selected biomarkers secondary. A Bonferroni correction for multiple testing of the secondary end-points comparing the 10 mg group with placebo gives a critical value of 0.0063. Data are presented as the difference in least square means with 95% confidence interval and p-value unless otherwise stated. All analyses were performed using SAS version 9.4 (SAS Institute, Cary, NC, USA). […]

MMP-7 = assay: Plasma biomarker MMP-7; conditions: for MMP-7 raw data, Mean (SD) / MMP-7 least square means % baseline±SEM: IPF patients
Method: as §1, §2, §3

PTX3 = assay: Plasma biomarker PTX3; conditions: for Pentraxin-3 (PTX3) raw data, Mean (SD) / PTX3 least square means % baseline±SEM: IPF patients
Method: as §1, §2, §3

Periostin = assay: Plasma biomarker periostin; conditions: for Periostin raw data, Mean (SD) / Periostin least square means % baseline±SEM: IPF patients
Method: as §1, §2, §3

SP-D = assay: Plasma biomarker SP-D; conditions: for SP-D raw data, Mean (SD) / SP-D least square means % baseline±SEM: IPF patients
Method: as §1, §2, §3

TIMP-1 = assay: Plasma biomarker TIMP-1; conditions: for TIMP1 raw data, Mean (SD) / TIMP-1 least square means % baseline±SEM: IPF patients
Method: as §1, §2, §3

OC[C@H]1O[C@@H](S[C@@H]2O[C@H](CO)[C@H](O)[C@H](n3cc(-c4cccc(F)c4)nn3)[C@H]2O)[C@H](O)[C@@H](n2cc(-c3cccc(F)c3)nn2)[C@H]1O [TD139]
MIF raw data, Mean (SD) (MIF; Day 14, 10 mg): 39660.6 (57202.1) pg/ml
MIF least square means % baseline±SEM (MIF; day 14, 0.3 mg once daily): 123.6±83.6 % baseline
MIF least square means % baseline±SEM (MIF; day 14, 3 mg once daily): 95.9±83.9 % baseline
MIF least square means % baseline±SEM (MIF; day 14, 10 mg once daily): 73.9±83.7 % baseline
MMP-7 difference in least square means % baseline (95% CI) (MMP-7; 10 mg vs placebo, ANCOVA): −82.0 (−237.9–73.9) % baseline
MMP-7 raw data, Mean (SD) (MMP-7; Day 14, 0.3 mg): 447.6 (205.21) pg/ml
MMP-7 raw data, Mean (SD) (MMP-7; Day 14, 3 mg): 1849.2 (2244.12) pg/ml
MMP-7 raw data, Mean (SD) (MMP-7; Day 14, 10 mg): 1130.6 (939.62) pg/ml
MMP-7 least square means % baseline±SEM (MMP-7; day 14, 0.3 mg once daily): 79.3±59.2 % baseline
MMP-7 least square means % baseline±SEM (MMP-7; day 14, 3 mg once daily): 82.3±58.4 % baseline
MMP-7 least square means % baseline±SEM (MMP-7; day 14, 10 mg once daily): 84.4±58.7 % baseline
PTX3 difference in least square means % baseline (95% CI) (PTX3; 10 mg vs placebo, ANCOVA): −69.6 (−220.3–81.2) % baseline
Pentraxin-3 (PTX3) raw data, Mean (SD) (PTX3; Day 14, 0.3 mg): 116.3 (214.7) pg/ml
Pentraxin-3 (PTX3) raw data, Mean (SD) (PTX3; Day 14, 3 mg): 629.9 (581.55) pg/ml
Pentraxin-3 (PTX3) raw data, Mean (SD) (PTX3; Day 14, 10 mg): 2534.7 (4451.2) pg/ml
PTX3 least square means % baseline±SEM (PTX3; day 14, 0.3 mg once daily): 51.8±68.6 % baseline
PTX3 least square means % baseline±SEM (PTX3; day 14, 3 mg once daily): 74.2±53.1 % baseline
PTX3 least square means % baseline±SEM (PTX3; day 14, 10 mg once daily): 67.0±56.1 % baseline
Periostin difference in least square means % baseline (95% CI) (Periostin; 10 mg vs placebo, ANCOVA): −5.4 (−18.8–8.0) % baseline
Periostin raw data, Mean (SD) (Periostin; Day 14, 0.3 mg): 125952.3 (17487.63) pg/ml
Periostin raw data, Mean (SD) (Periostin; Day 14, 3 mg): 142019.1 (30390.08) pg/ml
Periostin raw data, Mean (SD) (Periostin; Day 14, 10 mg): 108663.7 (24686.82) pg/ml
Periostin least square means % baseline±SEM (Periostin; day 14, 0.3 mg once daily): 114.0±5.3 % baseline
Periostin least square means % baseline±SEM (Periostin; day 14, 3 mg once daily): 99.3±5.2 % baseline
Periostin least square means % baseline±SEM (Periostin; day 14, 10 mg once daily): 93.1±5.0 % baseline
SP-D difference in least square means % baseline (95% CI) (SP-D; 10 mg vs placebo, ANCOVA): 4.0 (−41.0–49.1) % baseline
SP-D raw data, Mean (SD) (SP-D; Day 14, 0.3 mg): 38987.4 (10734.36) pg/ml
SP-D raw data, Mean (SD) (SP-D; Day 14, 3 mg): 91473.6 (43437.58) pg/ml
SP-D raw data, Mean (SD) (SP-D; Day 14, 10 mg): 30347 (3552.88) pg/ml
SP-D least square means % baseline±SEM (SP-D; day 14, 0.3 mg once daily): 109.6±16.6 % baseline
SP-D least square means % baseline±SEM (SP-D; day 14, 3 mg once daily): 111.7±18.2 % baseline
SP-D least square means % baseline±SEM (SP-D; day 14, 10 mg once daily): 118.7±17.3 % baseline
TIMP-1 difference in least square means % baseline (95% CI) (TIMP-1; 10 mg vs placebo, ANCOVA): 3.8 (−10.6–18.2) % baseline
TIMP1 raw data, Mean (SD) (TIMP-1; Day 14, 0.3 mg): 38084.3 (4735.81) pg/ml
TIMP1 raw data, Mean (SD) (TIMP-1; Day 14, 3 mg): 49880.6 (1032.27) pg/ml
TIMP1 raw data, Mean (SD) (TIMP-1; Day 14, 10 mg): 45458.7 (11908.04) pg/ml
TIMP-1 least square means % baseline±SEM (TIMP-1; day 14, 0.3 mg once daily): 88.6±5.8 % baseline
TIMP-1 least square means % baseline±SEM (TIMP-1; day 14, 3 mg once daily): 107.0±6.0 % baseline
TIMP-1 least square means % baseline±SEM (TIMP-1; day 14, 10 mg once daily): 106.0±5.5 % baseline
